Like-named read-outs stand apart in the source and are kept apart here.

The target of experiment [1] is recombinant human Mcl-1 (residues 171-327) / Bim interaction (Homo sapiens (Human), UniProt Q07820). Briefly: biochemical. The format is binding. Particulars: read-out: Mcl-1 HTRF IC50.
Experiment [2] relates to human multiple myeloma cell line, OPM-2. Briefly: Cell viability assay (OPM-2 10 FBS), CellTiter-Glo. It counts as cell-based. Put shortly:
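Serially diluted test compounds are incubated 16 h with cells (3000/well) in RPMI 1640 supplemented with 10% FBS. Viability is then measured by luminescence and IC50 calculated by 4-parameter logistic fit.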
For orientation: In ATP-based viability assays light output follows the ATP content of the culture.

[3] abbreviates: 0.1 nM Mcl-1(171-327), 0.05 nM biotin-Bim (51-76).
The mark [4] stands for this setting: Homo sapiens, OPM-2, 16 h, read-out: OPM-2 10% FBS IC50 IP, OPM-2 cells, 10% FBS, 16 h incubation.
Where [5] appears, read: TR-FRET, Mcl-1(171-327) / biotin-Bim (51-76).
Where [6] appears, read: Homo sapiens, OPM-2, 16 h, read-out: OPM-2 10% FBS IC50 IP, OPM-2 cells, 10% FBS, 16 h, CellTiter-Glo.
Where [7] appears, read: read-out: OPM-2 10% FBS IC50 IP, OPM-2 cells, 10% FBS, 16 h, CellTiter-Glo.

recombinant human Mcl-1 (residues 171-327) / Bim interaction, sequence (Q07820 171-327): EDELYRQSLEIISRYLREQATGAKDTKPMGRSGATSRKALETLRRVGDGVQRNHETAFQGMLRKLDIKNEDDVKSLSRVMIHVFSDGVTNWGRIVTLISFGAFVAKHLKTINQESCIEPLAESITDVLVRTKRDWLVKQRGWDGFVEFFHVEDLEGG

As a reminder, the IC50 is the concentration that gives 50% inhibition. On to `CC(C)O[C@]1(CN2CCN(C(C)C)[C@H](C)C2)/C=C/C[C@H](C)[C@@H](C)S(=O)(=O)NC(=O)c2ccc3c(c2)N(C[C@@H]2CC[C@H]21)C[C@@]1(CCCc2cc(Cl)ccc21)CO3` [Example 51], for which the IC50 in experiment [1] (setting [3]) is 0.072 nM; in experiment [2] (setting [4]) it was 99 nM.

For `CO[C@]1(CCN2CC(C)(N(C)C)C2)/C=C/C[C@H](C)[C@@H](C)S(=O)(=O)NC(=O)c2ccc3c(c2)N(C[C@@H]2CC[C@H]21)C[C@@]1(CCCc2cc(Cl)ccc21)CO3` [Example 100453, (1S,3′R,6′R,7′R,8′E,11′S,12′R)-6-chloro-7′-(2-(3-(dimethylamino)-3-methyl-1-azetidinyl)ethyl)-7′-methoxy-11′,12′-dimethyl-3,4-dihydro-2H,15′H-spiro[naphthalene-1,22′-[20]oxa[13]thia[1,14]diazatetracyclo [14.7.2.0~3,6~.0~19,24~]pentacosa[8,16,18,24]tetraen]-15′-one 13′,13′-dioxide], the values for the IC50 in experiment [1] (setting [5]) and in experiment [2] (setting [6]) were 0.927 nM and 2930 nM, respectively.

On to `CCO[C@]1(CN2CCN(C(C)C)CC2)/C=C/C[C@H](C)[C@@H](C)S(=O)(=O)NC(=O)c2ccc3c(c2)N(C[C@@H]2CC[C@H]21)C[C@@]1(CCCc2cc(Cl)ccc21)CO3` [Example 114, (1S,3′R,6′R,7′R,8′E,11′S,12′R)-6-chloro-7′-ethoxy-11′,12′-dimethyl-7′-((4-(1-methylethyl)-1-piperazinyl)methyl)-3,4-dihydro-2H,15′H-spiro[naphthalene-1,22′-[20]oxa[13]thia[1,14]diazatetracyclo [14.7.2.0~3,6~.0~19,24~]pentacosa[8,16,18,24]tetraen]-15′-one 13′,13′-dioxide], for which the results for the IC50 in experiment [1] (setting [3]) and in experiment [2] (setting [4]) were 0.104 nM and 68 nM, respectively.

On to `CO[C@@]1(CS(C)(=O)=O)/C=C/C[C@H](C)[C@@H](C)S(=O)(=O)NC(=O)c2ccc3c(c2)N(C[C@@H]2CC[C@H]21)C[C@@]1(CCCc2cc(Cl)ccc21)CO3` [Example 100459, (1S,3′R,6′R,7′S,8′E,11′S,12′R)-6-chloro-7′-methoxy-11′,12′-dimethyl-7′-((methylsulfonyl)methyl)-3,4-dihydro-2H,15′H-spiro[naphthalene-1,22′-[20]oxa[13]thia[1,14]diazatetracyclo [14.7.2.0~3,6~.0~19,24~]pentacosa[8,16,18,24]tetraen]-15′-one 13′,13′-dioxide], for which the IC50 in experiment [1] (setting [5]) is 0.685 nM; in experiment [2] (setting [6]), 732 nM.

For `C[C@@H]1[C@@H](C)C/C=C/[C@@](O)(CC(=O)N2CCCC2)[C@@H]2CC[C@H]2CN2C[C@@]3(CCCc4cc(Cl)ccc43)COc3ccc(cc32)C(=O)NS1(=O)=O` [Example 100253, (1S,3′R,6′R,7′S,8′E,11′S,12′R)-6-chloro-7′-hydroxy-11′,12′-dimethyl-7′-(2-oxo-2-(1-pyrrolidinyl)ethyl)-3,4-dihydro-2H,15′H-spiro[naphthalene-1,22′-[20]oxa[13]thia[1,14]diazatetracyclo [14.7.2.0~3,6~.0~19,24~]pentacosa[8,16,18,24]tetraen]-15′-one 13′,13′-dioxide], the IC50 in experiment [1] (setting [5]) came out at 0.149 nM; in experiment [2] (setting [7]), 544 nM.

In the case of `COCCO[C@]1(CN2CCN3CCCC[C@@H]3C2)/C=C/C[C@H](C)[C@@H](C)S(=O)(=O)NC(=O)c2ccc3c(c2)N(C[C@@H]2CC[C@H]21)C[C@@]1(CCCc2cc(Cl)ccc21)CO3` [Example 152, (1S,3′R,6′R,7′R,8′E,11′S,12′R)-6-chloro-7′-(2-methoxyethoxy)-11′,12′-dimethyl-7′-((9aR)-octahydro-2H-pyrido[1,2-a]pyrazin-2-ylmethyl)-3,4-dihydro-2H,15′H-spiro[naphthalene-1,22′-[20]oxa[13]thia[1,14]diazatetracyclo [14.7.2.0~3,6~.0~19,24~]pentacosa[8,16,18,24]tetraen]-15′-one 13′,13′-dioxide], the values for the IC50 in experiment [1] (setting [3]) and in experiment [2] (setting [4]) were 0.092 nM and 110 nM, respectively.

For `C[C@@H]1[C@@H](C)C/C=C/[C@@](CN2CCN3CCOC[C@@H]3C2)(OCC(F)(F)F)[C@@H]2CC[C@H]2CN2C[C@@]3(CCCc4cc(Cl)ccc43)COc3ccc(cc32)C(=O)NS1(=O)=O` [Example 50, (1S,3′R,6′R,7′R,8′E,11′S,12′R)-6-chloro-7′-((9aS)-hexahydropyrazino[2,1-c][1,4]oxazin-8(1H)-ylmethyl)-11′,12′-dimethyl-7′-(2,2,2-trifluoroethoxy)-3,4-dihydro-2H,15′H-spiro[naphthalene-1,22′-[20]oxa[13]thia[1,14]diazatetracyclo [14.7.2.0~3,6~.0~19,24~]pentacosa[8,16,18,24]tetraen]-15′-one 13′,13′-dioxide], the figures for the 50% inhibitory concentration (IC50) in experiment [1] (setting [3]) and in experiment [2] (setting [4]) were 0.736 nM and 1530 nM, respectively.

With `C[C@@H]1[C@@H](C)C/C=C/[C@@](O)([C@@H](C)C(=O)N(C)C)[C@@H]2CC[C@H]2CN2C[C@@]3(CCCc4cc(Cl)ccc43)COc3ccc(cc32)C(=O)NS1(=O)=O` (single isomer, unassigned) [Example 100126], the IC50 was found to be 0.183 nM in experiment [1] (setting [5]) and 41 nM in experiment [2] (setting [7]).

For `C[C@@H]1[C@@H](C)CCC[C@@](O)(CCN2CCCCC2)[C@@H]2CC[C@H]2CN2C[C@@]3(CCCc4cc(Cl)ccc43)COc3ccc(cc32)C(=O)NS1(=O)=O` [Example 100091, (1S,3′R,6′R,7′R,11′S,12′R)-6-chloro-7′-hydroxy-11′,12′-dimethyl-7′-(2-(1-piperidinyl)ethyl)-3,4-dihydro-2H,15′H-spiro[naphthalene-1,22′-[20]oxa[13]thia[1,14]diazatetracyclo [14.7.2.0~3,6~.0~19,24~]pentacosa[16,18,24]trien]-15′-one 13′,13′-dioxide], the IC50 is 1.2 nM in experiment [1] (setting [5]) and 1350 nM in experiment [2] (setting [6]).

For the molecule `C[C@@H]1[C@@H](C)C/C=C/[C@@](O)(CS(C)(=O)=O)[C@@H]2CC[C@H]2CN2C[C@@]3(CCCc4cc(Cl)ccc43)COc3ccc(cc32)C(=O)NS1(=O)=O` [Example 100072, (1S,3′R,6′R,7′S,8′E,11′S,12′R)-6-chloro-7′-hydroxy-11′,12′-dimethyl-7′-((methylsulfonyl)methyl)-3,4-dihydro-2H,15′H-spiro[naphthalene-1,22′-[20]oxa[13]thia[1,14]diazatetracyclo [14.7.2.0~3,6~.0~19,24~]pentacosa[8,16,18,24]tetraen]-15′-one 13′,13′-dioxide], the 50% inhibitory concentration (IC50) in experiment [1] (setting [5]) amounted to 0.451 nM; in experiment [2] (setting [6]), 1720 nM.

For the molecule `C[C@@H]1[C@@H](C)C/C=C/[C@@](O)(CC(=O)N2CC(F)(F)C2)[C@@H]2CC[C@H]2CN2C[C@@]3(CCCc4cc(Cl)ccc43)COc3ccc(cc32)C(=O)NS1(=O)=O` [Example 100297, (1S,3′R,6′R,7′S,8′E,11′S,12′R)-6-chloro-7′-(2-(3,3-difluoro-1-azetidinyl)-2-oxoethyl)-7′-hydroxy-11′,12′-dimethyl-3,4-dihydro-2H,15′H-spiro[naphthalene-1,22′-[20]oxa[13]thia[1,14]diazatetracyclo [14.7.2.0~3,6~.0~19,24~]pentacosa[8,16,18,24]tetraen]-15′-one 13′,13′-dioxide], the IC50 was 0.115 nM in experiment [1] (setting [5]) and 168 nM in experiment [2] (setting [6]).

In the case of `CO[C@]1(CCN2CCN3CCOC[C@@H]3C2)/C=C/C[C@H](C)[C@@H](C)S(=O)(=O)NC(=O)c2ccc3c(c2)N(C[C@@H]2CC[C@H]21)C[C@@]1(CCCc2cc(Cl)ccc21)CO3` [Example 100425, (1S,3′R,6′R,7′R,8′E,11′S,12′R)-6-chloro-7′-(2-((9aS)-hexahydropyrazino[2,1-c][1,4]oxazin-8(1H)-yl)ethyl)-7′-methoxy-11′,12′-dimethyl-3,4-dihydro-2H,15′H-spiro[naphthalene-1,22′-[20]oxa[13]thia[1,14]diazatetracyclo [14.7.2.0~3,6~.0~19,24~]pentacosa[8,16,18,24]tetraen]-15′-one 13′,13′-dioxide], the 50% inhibitory concentration (IC50) is 0.165 nM in experiment [1] (setting [5]) and 717 nM in experiment [2] (setting [6]).

As to `COc1ncccc1[C@@]1(O)/C=C/C[C@H](C)[C@@H](C)S(=O)(=O)NC(=O)c2ccc3c(c2)N(C[C@@H]2CC[C@H]21)C[C@@]1(CCCc2cc(Cl)ccc21)CO3` (single isomer, unassigned) [Example 100334], the values for the IC50 in experiment [1] (setting [5]) and in experiment [2] (setting [7]) were 3.27 nM and 1470 nM, respectively.

Consider `C[C@@H]1[C@@H](C)C/C=C/[C@](O)(c2ccc(F)cn2)[C@@H]2CC[C@H]2CN2C[C@@]3(CCCc4cc(Cl)ccc43)COc3ccc(cc32)C(=O)NS1(=O)=O` [Example 100403, (1S,3′R,6′R,7′R,8′E,11′S,12′R)-6-chloro-7′-(5-fluoro-2-pyridinyl)-7′-hydroxy-11′,12′-dimethyl-3,4-dihydro-2H,15′H-spiro[naphthalene-1,22′-[20]oxa[13]thia[1,14]diazatetracyclo [14.7.2.0~3,6~.0~19,24~]pentacosa[8,16,18,24]tetraen]-15′-one 13′,13′-dioxide], for which the half-inhibitory concentration (IC50) in experiment [1] (setting [5]) was determined as 0.226 nM; in experiment [2] (setting [6]), 390 nM.

Consider `CO[C@@]1(CN2CCN(C3CN(C(C)=O)C3)CC2)/C=C/C[C@H](C)[C@@H](C)S(=O)(=O)NC(=O)c2ccc3c(c2)N(C[C@@H]2CC[C@H]21)C[C@@]1(CCCc2cc(Cl)ccc21)CO3` [Example 280, (1S,3′R,6′R,7′S,8′E,11′S,12′R)-7′-((4-(1-acetyl-3-azetidinyl)-1-piperazinyl)methyl)-6-chloro-7′-methoxy-11′,12′-dimethyl-3,4-dihydro-2H,15′H-spiro[naphthalene-1,22′-[20]oxa[13]thia[1,14]diazatetracyclo [14.7.2.0~3,6~.0~19,24~]pentacosa[8,16,18,24]tetraen]-15′-one 13′,13′-dioxide], for which the results for the IC50 in experiment [1] (setting [3]) and in experiment [2] (setting [4]) were 0.052 nM and 73 nM, respectively.

The values are drawn from patent publication US10821115B2, “Compounds that inhibit Mcl-1 protein” (priority 2017, dated 2020).
